Experiment [1] deals with T1, Cholecystokinin receptor type A (Rattus norvegicus) (UniProt P30551).
T1 sequence (whole entry): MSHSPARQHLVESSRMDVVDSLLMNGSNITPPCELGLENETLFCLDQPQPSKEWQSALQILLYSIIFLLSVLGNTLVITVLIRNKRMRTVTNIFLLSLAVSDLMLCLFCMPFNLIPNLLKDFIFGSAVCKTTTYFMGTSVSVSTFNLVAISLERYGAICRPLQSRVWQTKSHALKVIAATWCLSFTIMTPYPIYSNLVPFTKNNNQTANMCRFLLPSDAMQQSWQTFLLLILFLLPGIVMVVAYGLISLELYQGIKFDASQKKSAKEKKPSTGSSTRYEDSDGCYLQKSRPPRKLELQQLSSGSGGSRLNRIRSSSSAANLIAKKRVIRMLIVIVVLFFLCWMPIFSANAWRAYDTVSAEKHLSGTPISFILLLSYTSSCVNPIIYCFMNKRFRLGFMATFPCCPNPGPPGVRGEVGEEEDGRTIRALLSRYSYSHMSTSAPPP
Kind of experiment: Compound was evaluated for the inhibition of […] I-CCK-8 binding at Cholecystokinin type A receptor in rat pancreatic membranes at 10 e -8 M. Format: cell membranes. Particulars: Membrane.

Experiment [2] addresses T2, Cholecystokinin receptor type A (Rattus norvegicus, UniProt P30551).
T2 sequence (P30551 whole entry): T1 sequence (whole entry)
Kind of experiment: Compound was evaluated for the inhibition of […] I-CCK-8 binding at Cholecystokinin type A receptor in rat pancreatic membranes. It counts as cell membranes, Membrane.

The target of experiment [3] is Cholecystokinin receptor (Homo sapiens) (UniProt P32239+P32238). Kind of experiment: Ratio of inhibitory activity of CCK-A to CCK-B was reported. It counts as protein assay.
Chain of Cholecystokinin receptor (Homo sapiens) (P32238 whole entry, looked up): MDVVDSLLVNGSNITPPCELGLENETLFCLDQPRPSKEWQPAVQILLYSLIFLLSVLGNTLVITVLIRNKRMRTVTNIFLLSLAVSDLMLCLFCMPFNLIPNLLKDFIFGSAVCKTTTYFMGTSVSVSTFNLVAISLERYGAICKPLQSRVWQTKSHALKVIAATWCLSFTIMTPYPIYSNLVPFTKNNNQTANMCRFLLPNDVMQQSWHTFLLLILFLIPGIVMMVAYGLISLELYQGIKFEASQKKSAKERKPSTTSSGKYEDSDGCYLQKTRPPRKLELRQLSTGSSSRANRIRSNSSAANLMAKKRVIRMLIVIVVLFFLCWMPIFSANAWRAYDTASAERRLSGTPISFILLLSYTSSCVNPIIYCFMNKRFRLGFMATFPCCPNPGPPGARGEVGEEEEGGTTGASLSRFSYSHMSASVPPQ
Chain of Cholecystokinin receptor (Homo sapiens) (P32239 whole entry, looked up): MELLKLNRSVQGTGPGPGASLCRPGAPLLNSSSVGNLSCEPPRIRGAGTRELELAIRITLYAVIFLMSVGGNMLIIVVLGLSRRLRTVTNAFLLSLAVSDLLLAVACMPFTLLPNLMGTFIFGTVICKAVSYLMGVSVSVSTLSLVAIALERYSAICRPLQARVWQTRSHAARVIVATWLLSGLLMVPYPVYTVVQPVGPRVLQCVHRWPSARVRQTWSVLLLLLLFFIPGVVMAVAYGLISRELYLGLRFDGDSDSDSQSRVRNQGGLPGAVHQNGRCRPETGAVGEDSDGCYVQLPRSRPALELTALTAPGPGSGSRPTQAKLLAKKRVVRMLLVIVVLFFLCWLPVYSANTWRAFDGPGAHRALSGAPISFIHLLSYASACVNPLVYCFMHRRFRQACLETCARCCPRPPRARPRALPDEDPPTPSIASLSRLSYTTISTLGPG
The nature of experiment [4]: Compound was evaluated for the inhibition of […] I-CCK-8 binding at Cholecystokinin type B receptor on guinea pig cerebral cortical membranes.

For the molecule `CC(C)c1cccc2c1N(CC(=O)N1CC3CCC(CC3)C1)C(=O)C(NC(=O)Nc1cccc(-c3nn[nH]n3)c1)N=C2c1ccccc1F` (centres undefined), the inhibition in experiment [1] came out at 12.2%.
On to `O=C(Nc1cccc(-c2nnn[nH]2)c1)NC1N=C(c2ccccc2F)c2ccccc2N(CC(=O)N2CC3CCC(CC3)C2)C1=O` (centres undefined), for which the half-maximal inhibitory concentration (IC50) in experiment [2] amounted to 62 nM. That is a double-digit nanomolar value.
`O=C(Nc1cccc(-c2nnn[nH]2)c1)NC1N=C(c2ccccc2F)c2cccc(Cl)c2N(CC(=O)N2CC3CCC(CC3)C2)C1=O` (centres undefined): the IC50 in experiment [2] stood at 13 nM.
Same read-out and setting: in the case of `CCc1cccc2c1N(CC(=O)N1CC3CCC(CC3)C1)C(=O)C(NC(=O)Nc1cccc(-c3nnn[nH]3)c1)N=C2c1ccccc1F` (centres undefined) it was 18 nM.
Turning to `O=C(Nc1cccc(-c2nn[nH]n2)c1)NC1N=C(c2ccccc2F)c2ccccc2N(CC(=O)N2CC3CCC(CC3)C2)C1=O` (centres undefined), in experiment [3], the Ratio was found to be 710.
Same read-out and setting: in the case of `CCc1cccc2c1N(CC(=O)N1CC3CCC(CC3)C1)C(=O)C(NC(=O)Nc1cccc(-c3nn[nH]n3)c1)N=C2c1ccccc1F` (centres undefined) it was 22; in that of `O=C(Nc1cccc(-c2nn[nH]n2)c1)NC1N=C(c2ccccc2F)c2cccc(Cl)c2N(CC(=O)N2CC3CCC(CC3)C2)C1=O` (centres undefined), 20.
In the case of `Cc1cccc2c1N(CC(=O)N1CC3CCC(CC3)C1)C(=O)C(NC(=O)Nc1cccc(-c3nn[nH]n3)c1)N=C2c1ccccc1F` (centres undefined), in experiment [3], the Ratio was found to be 21. The IC50 in experiment [4] stood at 0.68 nM.

These data come from ChEMBL document CHEMBL1130831, “Relationship between dihedral angles of N1 and C9 substituents in 1,4-benzodiazepines and dual cholecystokinin-A and -B antagonistic activities” (Bioorg Med Chem Lett, 1998).
